{"source": "patent US12480137B2", "about": "“Plants having increased tolerance to herbicides” (BASF SE, priority 2014, dated 2025)", "format_in_all_cases": "in vivo, Arabidopsis thaliana", "key": {"[1]": {"tested_on": "Cesa1_P1010L, fpx2-2 mutant line", "assay": "Greenhouse phytotox, pre-emergent treatment", "procedure": "(§1) Additionally, M2 or M3 Arabidopsis plants are tested for improved tolerance to cellulose biosynthesis-inhibiting herbicides in greenhouse studies (e. g. with the following cellulose biosynthesis-inhibiting herbicides: 6-cyclopentyl-N4-(2,3,4,5,6-pentafluorophenyl)-1,3,5-triazine-2,4-diamine; 6-(1-fluoro-1-methyl-ethyl)-N4-(2,3,4,5,6-pentafluorophenyl)-1,3,5-triazine-2,4-diamine; N4-(4-chloro-3,5,6-trifluoro-2-pyridyl)-6-(1-fluoro-1-methyl-ethyl)-1,3,5-triazine-2,4-diamine; 6-(2,6-difluorophenyl)-N4-(2,3,5,6-tetrafluorophenyl)-1,3,5-triazine-2,4-diamine; N4-(4-bromo-2,3,5,6-tetrafluoro-phenyl)-6-(1-fluoro-1-methyl-ethyl)-1,3,5-triazine-2,4-diamine."}, "[2]": {"tested_on": "Cesa1_G1009D, fpx2-3 mutant line", "assay": "Greenhouse phytotox, pre-emergent treatment", "procedure": "as §1"}, "[3]": {"tested_on": "Cesa1_G1013R, fpx2-1 mutant line", "assay": "Greenhouse phytotox, pre-emergent treatment", "procedure": "as §1"}, "[4]": {"tested_on": "Cesa3_S1040L, fpx1-1 mutant line", "assay": "Greenhouse phytotox, pre-emergent treatment", "procedure": "as §1"}, "A. thaliana WT L. erecta": {"tested_on": "A. thaliana WT L. erecta", "assay": "Greenhouse phytotox, pre-emergent treatment", "procedure": "as §1"}, "[5]": {"tested_on": "Cesa3_S983F, fpx1-3 mutant line", "assay": "Greenhouse phytotox, pre-emergent treatment", "procedure": "as §1"}, "[6]": {"tested_on": "Cesa3_S1037F, fpx1-2 mutant line", "assay": "Greenhouse phytotox, pre-emergent treatment", "procedure": "as §1"}, "[7]": {"tested_on": "Arabidopsis mutant line Cesa1_G1009D", "assay": "Growth inhibition of Arabidopsis lines in 48-well plates, tolerance factor from IC50", "conditions": "growth inhibition seven to ten days after seeding", "excerpt": "(§2) For selection of cellulose biosynthesis inhibitor resistant plants EMS mutagenized seed populations of Arabidopsis thaliana are used. EMS mutagenized seed populations are either bought from Lehle Seeds (1102 South Industrial Blvd. Suite D, Round Rock, Texas USA) or are generated as described elsewhere (Heim D R, et. al. (1989) Plant Physiol. 90: 146-150). Causative mutations in CESA wildtype sequences (e.g. SEQ ID NO: 1 or 3) are identified as described by Scheible W R et. al. (2001, Proc. Natl. Acad. of Sci. 98: 10079-10084), McCourt et. al. (WO2013/142968) or with the use of next generation sequencing methods as described by Austin R S, et. al. (2011) Plant Journal 67: 715-725.\n(§3) Selected Arabidopsis thaliana lines were assayed for improved resistance to azines like 6-cyclopentyl-N4-(2,3,4,5,6-pentafluorophenyl)-1,3,5-triazine-2,4-diamine; 6-(1-fluoro-1-methyl-ethyl)-N4-(2,3,4,5,6-pentafluorophenyl)-1,3,5-triazine-2,4-diamine; 6-cyclohexyl-N2-(2,3,4,5,6-pentafluorophenyl)-1,3,5-triazine-2,4-diamine; 6-(2,6-difluorophenyl)-N2-(2,3,5,6-tetrafluorophenyl)-1,3,5-triazine-2,4-diamine; N2-(4-chloro-3,5,6-trifluoro-2-pyridyl)-6-(1-fluoro-1-methyl-ethyl)-1,3,5-triazine-2,4-diamine in 48-well plates. Therefore, M2 or M3 seeds are surface sterilized by stirring for 5 min in ethanol+water (70+30 by volume), rinsing one time with ethanol+water (70+30 by volume) and two times with sterile, deionized water. The seeds are resuspended in 0.1% agar dissolved in water (w/v) Four to five seeds per well are plated on solid nutrient medium consisting of half-strength murashige skoog nutrient solution, pH 5.8 (Murashige and Skoog (1962) Physiologia Plantarum 15: 473-497). Compounds are dissolved in dimethylsulfoxid (DMSO) and added to the medium prior solidification (final DMSO concentration 0.1%). Multi well plates are incubated in a growth chamber at 22° C., 75% relative humidity and 110 μmol Phot*m^−2*s^−1 with 14:10 h light:dark photoperiod. Growth inhibition is evaluated seven to ten days after seeding in comparison to wild type plants. Tolerance factors are calculated based on IC50 values of growth inhibition of transformed versus non-transformed Arabidopsis plants (Table 3)."}, "[8]": {"tested_on": "Arabidopsis mutant line Cesa1_G1013R", "assay": "Growth inhibition of Arabidopsis lines in 48-well plates, tolerance factor from IC50", "conditions": "growth inhibition seven to ten days after seeding", "excerpt": "as §2, §3"}, "[9]": {"tested_on": "Arabidopsis mutant line Cesa3_S1037F", "assay": "Growth inhibition of Arabidopsis lines in 48-well plates, tolerance factor from IC50", "conditions": "growth inhibition seven to ten days after seeding", "excerpt": "as §2, §3"}, "[10]": {"tested_on": "Arabidopsis mutant line Cesa3_S1040L", "assay": "Growth inhibition of Arabidopsis lines in 48-well plates, tolerance factor from IC50", "conditions": "growth inhibition seven to ten days after seeding", "excerpt": "as §2, §3"}, "[11]": {"tested_on": "Arabidopsis mutant line Cesa3_S983F", "assay": "Growth inhibition of Arabidopsis lines in 48-well plates, tolerance factor from IC50", "conditions": "growth inhibition seven to ten days after seeding", "excerpt": "as §2, §3"}, "[12]": {"tested_on": "Arabidopsis mutant line Cesa1_P1010L", "assay": "Growth inhibition of Arabidopsis lines in 48-well plates, tolerance factor from IC50", "conditions": "growth inhibition seven to ten days after seeding", "excerpt": "as §2, §3"}, "[13]": {"tested_on": "wildtype Arabidopsis plants", "assay": "Growth inhibition of Arabidopsis lines in 48-well plates, tolerance factor from IC50", "conditions": "growth inhibition seven to ten days after seeding", "excerpt": "as §2, §3"}}, "data": [{"smiles": "Nc1nc(Nc2c(F)c(F)cc(F)c2F)nc(-c2c(F)cccc2F)n1", "note": "[6-(2,6-difluorophenyl)-N2-(2,3,5,6-tetrafluorophenyl)-1,3,5-triazine-2,4-diamine]", "values": [{"measurement": "Phytotox value on a scale from 0-100 (100 is 100% damage)", "setting": "[1]; 0.98 g ai/ha", "value": 48}, {"measurement": "Phytotox value on a scale from 0-100 (100 is 100% damage)", "setting": "[1]; 3.91 g ai/ha", "value": 35}, {"measurement": "Phytotox value on a scale from 0-100 (100 is 100% damage)", "setting": "[1]; 15.63 g ai/ha", "value": 65}, {"measurement": "Phytotox value on a scale from 0-100 (100 is 100% damage)", "setting": "[1]; 62.5 g ai/ha", "value": 98}, {"measurement": "Phytotox value on a scale from 0-100 (100 is 100% damage)", "setting": "[2]; 0.98 g ai/ha", "value": 65}, {"measurement": "Phytotox value on a scale from 0-100 (100 is 100% damage)", "setting": "[2]; 3.91 g ai/ha", "value": 38}, {"measurement": "Phytotox value on a scale from 0-100 (100 is 100% damage)", "setting": "[2]; 15.63 g ai/ha", "value": 18}, {"measurement": "Phytotox value on a scale from 0-100 (100 is 100% damage)", "setting": "[2]; 62.5 g ai/ha", "value": 95}, {"measurement": "Phytotox value on a scale from 0-100 (100 is 100% damage)", "setting": "[3]; 0.98 g ai/ha", "value": 15}, {"measurement": "Phytotox value on a scale from 0-100 (100 is 100% damage)", "setting": "[3]; 3.91 g ai/ha", "value": 35}, {"measurement": "Phytotox value on a scale from 0-100 (100 is 100% damage)", "setting": "[3]; 15.63 g ai/ha", "value": 28}, {"measurement": "Phytotox value on a scale from 0-100 (100 is 100% damage)", "setting": "[3]; 62.5 g ai/ha", "value": 40}, {"measurement": "Phytotox value on a scale from 0-100 (100 is 100% damage)", "setting": "[4]; 0.98 g ai/ha", "value": 13}, {"measurement": "Phytotox value on a scale from 0-100 (100 is 100% damage)", "setting": "[4]; 3.91 g ai/ha", "value": 8}, {"measurement": "Phytotox value on a scale from 0-100 (100 is 100% damage)", "setting": "[4]; 15.63 g ai/ha", "value": 25}, {"measurement": "Phytotox value on a scale from 0-100 (100 is 100% damage)", "setting": "[4]; 62.5 g ai/ha", "value": 28}, {"measurement": "Phytotox value on a scale from 0-100 (100 is 100% damage)", "setting": "A. thaliana WT L. erecta; 0.98 g ai/ha", "value": 30}, {"measurement": "Phytotox value on a scale from 0-100 (100 is 100% damage)", "setting": "A. thaliana WT L. erecta; 3.91 g ai/ha", "value": 70}, {"measurement": "Phytotox value on a scale from 0-100 (100 is 100% damage)", "setting": "A. thaliana WT L. erecta; 15.63 g ai/ha", "value": 90}, {"measurement": "Phytotox value on a scale from 0-100 (100 is 100% damage)", "setting": "A. thaliana WT L. erecta; 62.5 g ai/ha", "value": 100}, {"measurement": "Phytotox value on a scale from 0-100 (100 is 100% damage)", "setting": "[5]; 0.98 g ai/ha", "value": 18}, {"measurement": "Phytotox value on a scale from 0-100 (100 is 100% damage)", "setting": "[5]; 3.91 g ai/ha", "value": 35}, {"measurement": "Phytotox value on a scale from 0-100 (100 is 100% damage)", "setting": "[5]; 15.63 g ai/ha", "value": 43}, {"measurement": "Phytotox value on a scale from 0-100 (100 is 100% damage)", "setting": "[5]; 62.5 g ai/ha", "value": 33}, {"measurement": "Phytotox value on a scale from 0-100 (100 is 100% damage)", "setting": "[6]; 0.98 g ai/ha", "value": 28}, {"measurement": "Phytotox value on a scale from 0-100 (100 is 100% damage)", "setting": "[6]; 3.91 g ai/ha", "value": 65}, {"measurement": "Phytotox value on a scale from 0-100 (100 is 100% damage)", "setting": "[6]; 15.63 g ai/ha", "value": 73}, {"measurement": "Phytotox value on a scale from 0-100 (100 is 100% damage)", "setting": "[6]; 62.5 g ai/ha", "value": 99}, {"measurement": "Relative tolerance rate (wildtype = 1.0)", "setting": "[7]", "value": 1}, {"measurement": "Relative tolerance rate (wildtype = 1.0)", "setting": "[8]", "value": 13}, {"measurement": "Relative tolerance rate (wildtype = 1.0)", "setting": "[9]", "value": 1}, {"measurement": "Relative tolerance rate (wildtype = 1.0)", "setting": "[10]", "value": 13}, {"measurement": "Relative tolerance rate (wildtype = 1.0)", "setting": "[11]", "value": 1}, {"measurement": "Relative tolerance rate (wildtype = 1.0)", "setting": "[12]", "value": 2}, {"measurement": "Relative tolerance rate (wildtype = 1.0)", "setting": "[13]", "value": 1}]}]}
